{"source": "patent US20110077230A1", "about": "“COPPER ORGANOCOMPLEXES, USE THEREOF AS ANTITUMOR MEANS AND FOR PROTECTING HEALTHY TISSUE FROM IONIZING RADIATION” (CHARITE - UNIVERSITATSMEDIZIN BERLIN, priority 2008, published 2011)", "key": {"[1]": {"tested_on": "colon adenocarcinoma tumor (AKATOL)", "experiment": "Transplanted colon adenocarcinoma (AKATOL), peroral administration", "assay_type": "in vivo, mice of the BALB line", "conditions": "10 mg/kg peroral in olive oil", "description": "Tumor cells were transplanted in mice of the BALB line by injection into the thighs. 3 of 4 groups received the respective preparation on the peroral route 3, 4, 5, 6, 7, 8, 9 and 10 days after tumor implantation.\nGroup I: 10 mg/kg complex A suspended in olive oil.\nGroup II: 5 mg/kg complex A suspended in olive oil.\nGroup III: 10 mg/kg sarcolysine suspended in olive oil.\nOn day 21 of the experiment the animals were sacrificed and examined."}, "neutrophils": {"tested_on": "neutrophils", "experiment": "Antioxidant properties: ROS formation in neutrophils", "assay_type": "cell-based, male mice of the NMRI line", "conditions": "triggered by PMA and fMLF, depending on the dosage", "source_text": "The complexes A and C show a pronounced effect as antioxidant in an environment having an excess of reactive oxygen species (ROS). Thus, ROS formation in neutrophils obtained from male mice of the NMRI line was triggered by two activators: phorbol 12-myristate 13-acetate (PMA) and N-formyl-methionyl-leucylphenylalanine (fMLF)."}, "[2]": {"tested_on": "human mammary gland tumor cells, T2N1M0 stage", "experiment": "In vitro effect on human mammary gland tumor cells, Experiment 1", "assay_type": "cell-based", "description": "(§1) Tumor cells were collected from the surgical material of female patients suffering from mammary carcinoma at two different stages. The tumor tissue was added with sterile 0.25% trypsin solution and centrifuged repeatedly in RPMI-1640 nutrient medium for 15 minutes at 1500 revolutions per minute. The amount of resulting cells was counted and the suspension of tumor cells divided into five equal groups. The RPMI-1640 nutrient medium was added with 12% fetal calf serum. The cells were incubated for 48 h at 37° C. in a 5% CO2 stream.\n(§2) The preparations were dissolved in 4% DMSO and physiological saline and acidified with HCl.\n(§3) Two experiments were performed using cancer cells derived from tumors of different stages. To differentiate the various stages of cancer, the TNM classification is used internationally which takes into account the tumor size (T), lymph node affection (N=nodal status) and the extent of metastasis (M).\n(T2: tumor up to 5 cm; N1; metastases in 3 lymph nodes; M0: no distant metastases). A suspension including 40 million cells was added with 50 μl of each preparation.\n(§4) The 5 groups with cancer cells received the following:\n(§5) After subjecting the preparations to flow incubation for 60 minutes, trypan blue stained cells were produced, and dead cells and apoptosis could be determined; dead cells and apoptotic cells were determined in specific units of time and morphological findings."}, "melanoma B 16": {"tested_on": "melanoma B 16", "experiment": "B 16 melanoma in mice, intraabdominal administration", "assay_type": "in vivo, mice of the line C 57Bl", "conditions": "5 mg/kg intraabdominally", "description": "The melanoma B 16 was implanted in 20 mice of the line C 57Bl by subcutaneous injection into the right thigh. The animals were divided into four groups of five mice each. Group I received complex A at a dosage of 7 mg/kg, dissolved in DMSO, which was administered intraabdominally in a 4% suspension in physiological saline. Each administration was performed 3, 5, 7 and 9 days after trans-plantation of the tumor.\nGroup II was treated as group I, but using a dosage of 5 mg/kg.\nGroup III was treated as group I, but received 5 mg/kg of melphalan hydrochloride instead of complex A.\nGroup IV remained untreated."}, "[3]": {"tested_on": "human mammary gland tumor cells, T4N2M0 stage", "experiment": "In vitro effect on human mammary gland tumor cells, Experiment 2", "assay_type": "cell-based", "description": "as §1, §2, §3\n(T3: large tumor spreading into the tissue surrounding the breast; N2: metastases up to 9 axillary lymph nodes, M0: no distant metastases). A suspension including 40 million cells was added with 50 μl of each preparation.\nas §4, §5"}, "[4]": {"tested_on": "Ehrlich ascites adenocarcinoma", "experiment": "Ehrlich ascites adenocarcinoma in mice", "assay_type": "in vivo, white mice", "description": "The tumor was implanted intraabdominally in white mice of no particular race.\nGroup I received complex A orally as a suspension in olive oil at a dosage of 10 mg/kg 3, 4, 5, 6, 7, 8, 9 and 10 days after tumor implantation.\nGroup II received the same treatment, but using sarcolysine instead of complex A.\nGroup III received no treatment.\nThe animals were sacrificed and examined on the 11th day after tumor implantation."}}, "data": [{"molecule": "NC(Cc1ccc(N(CCCl)CCCl)cc1)C(=O)O", "note": "(racemic) [sarcolysine, 4-[bis(2-chloroethyl)amino]-D,L-phenylalanine, reference compound]", "values": [{"measurement": "% inhibition", "setting": "[1]", "value": 43, "unit": "%"}, {"measurement": "Average weight of tumor", "setting": "[1]; days 3 to 10, day 21", "value": 1.85, "unit": "g"}, {"measurement": "formation of ROS in neutrophils", "setting": "neutrophils", "value": "hardly achieved"}, {"measurement": "Living cells, %", "setting": "[2]; Experiment 1, T2N1M0", "value": "54.0 ± 2.22", "unit": "%"}, {"measurement": "Dead cells, %", "setting": "[2]; Experiment 1, T2N1M0, 40 million cells, 50 μl of preparation", "value": "46.0 ± 2.22", "unit": "%"}, {"measurement": "Apoptotic index AI", "setting": "melanoma B 16", "value": "3.07 ‰"}, {"measurement": "Bone marrow index MI BM", "setting": "melanoma B 16", "value": "1.88 ‰"}, {"measurement": "Inhibition of tumor growth, mass percent", "setting": "melanoma B 16", "value": "mass percent 62.87%"}, {"measurement": "Inhibition of tumor growth, volume percent", "setting": "melanoma B 16", "value": "volume percent 35.78%"}, {"measurement": "Mitotic index of tumor cells MI", "setting": "melanoma B 16", "value": "2.43 ‰"}, {"measurement": "Average volume of tumor", "setting": "melanoma B 16; days 3, 5, 7, 9", "value": 1.4, "unit": "cm^3"}, {"measurement": "Average weight of tumor", "setting": "melanoma B 16; days 3, 5, 7, 9", "value": 482.6, "unit": "mg"}, {"measurement": "Living cells, %", "setting": "[3]; Experiment 2, T4N2M0", "value": "51.0 ± 2.23", "unit": "%"}, {"measurement": "Dead cells, %", "setting": "[3]; Experiment 2, T4N2M0, 40 million cells, 50 μl of preparation", "value": "49.0 ± 2.23", "unit": "%"}, {"measurement": "% inhibition", "setting": "[4]; 10 mg/kg orally", "value": 47.4, "unit": "%"}, {"measurement": "Average MI of bone marrow", "setting": "[4]; 10 mg/kg orally", "value": "0.52 ± 0.26 ‰"}, {"measurement": "Average MI of tumor cells", "setting": "[4]; 10 mg/kg orally", "value": "2.0 ± 1.87 ‰"}, {"measurement": "Average number of tumor cells", "setting": "[4]; 10 mg/kg orally in olive oil, days 3 to 10, day 11", "value": "77 10^6"}]}, {"molecule": "O=c1[nH]c(=O)n(C2CCCO2)cc1F", "note": "(stereo not shown) [tegafur, N-(2-furanidil)-5-fluorouracil, reference compound]", "values": [{"measurement": "formation of ROS in neutrophils", "setting": "neutrophils", "value": "hardly achieved"}]}]}
